The source of these data is ChEMBL document CHEMBL4419163, “Assays for identifying compounds that modulate bitter taste” (2014).

Common to all, as to assay type: functional, cell-based
The target of assay [1] is T1, Taste receptor type 2 member 42 (Homo sapiens) (UniProt Q7RTR8).
T1 sequence (whole entry): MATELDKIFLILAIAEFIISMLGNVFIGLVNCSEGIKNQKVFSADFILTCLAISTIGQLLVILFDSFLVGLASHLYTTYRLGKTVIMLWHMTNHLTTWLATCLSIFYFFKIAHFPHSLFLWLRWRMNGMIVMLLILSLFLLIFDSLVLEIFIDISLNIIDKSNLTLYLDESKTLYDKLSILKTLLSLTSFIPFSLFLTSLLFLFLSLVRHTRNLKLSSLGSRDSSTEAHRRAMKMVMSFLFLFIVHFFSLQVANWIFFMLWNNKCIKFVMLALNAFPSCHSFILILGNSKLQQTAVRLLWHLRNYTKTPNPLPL
Description: Agonist activity at human TAS2R55 expressed in HEK293T cells co-expressing Galpha15 assessed as increase in intracellular calcium level at 20 mM by Calcium-3 dye based fluorescence assay relative to control.

The target of assay [2] is Taste receptor type 2 member 40 (Homo sapiens) (UniProt P59535). Description: Agonist activity at human TAS2R40 expressed in HEK293T cells co-expressing Galpha15 assessed as increase in intracellular calcium level at 20 mM by Calcium-3 dye based fluorescence assay relative to control. (Calcium assays in cells follow changes in intracellular calcium, usually with a dye or a luminescent sensor.)
Taste receptor type 2 member 40 (Homo sapiens), sequence (P59535 whole entry): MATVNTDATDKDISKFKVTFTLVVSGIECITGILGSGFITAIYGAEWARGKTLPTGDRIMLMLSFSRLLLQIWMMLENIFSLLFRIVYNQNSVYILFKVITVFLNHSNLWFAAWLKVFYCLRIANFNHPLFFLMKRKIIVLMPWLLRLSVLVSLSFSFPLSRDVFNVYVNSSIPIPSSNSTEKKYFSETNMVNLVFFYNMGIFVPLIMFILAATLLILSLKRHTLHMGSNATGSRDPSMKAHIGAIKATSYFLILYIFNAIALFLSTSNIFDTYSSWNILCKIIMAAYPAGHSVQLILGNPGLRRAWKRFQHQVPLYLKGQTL

In assay [3] the target is T2, Taste receptor type 2 member 39 (Homo sapiens) (UniProt P59534).
T2 sequence (whole entry): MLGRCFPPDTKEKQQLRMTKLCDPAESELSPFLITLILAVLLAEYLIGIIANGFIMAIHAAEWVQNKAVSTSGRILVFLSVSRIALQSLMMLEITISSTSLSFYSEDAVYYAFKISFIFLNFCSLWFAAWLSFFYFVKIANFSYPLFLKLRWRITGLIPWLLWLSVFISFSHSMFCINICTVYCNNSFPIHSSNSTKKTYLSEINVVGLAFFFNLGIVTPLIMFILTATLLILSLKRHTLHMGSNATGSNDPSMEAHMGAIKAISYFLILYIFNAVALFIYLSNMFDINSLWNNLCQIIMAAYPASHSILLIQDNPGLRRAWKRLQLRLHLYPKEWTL
Put plainly: Agonist activity at human TAS2R39 expressed in HEK293T cells co-expressing Galpha15 assessed as increase in intracellular calcium level at 20 mM by Calcium-3 dye based fluorescence assay relative to control.

Assay [4] concerns the target T3, Taste receptor type 2 member 9 (Homo sapiens) (UniProt Q9NYW1).
T3 sequence (whole entry): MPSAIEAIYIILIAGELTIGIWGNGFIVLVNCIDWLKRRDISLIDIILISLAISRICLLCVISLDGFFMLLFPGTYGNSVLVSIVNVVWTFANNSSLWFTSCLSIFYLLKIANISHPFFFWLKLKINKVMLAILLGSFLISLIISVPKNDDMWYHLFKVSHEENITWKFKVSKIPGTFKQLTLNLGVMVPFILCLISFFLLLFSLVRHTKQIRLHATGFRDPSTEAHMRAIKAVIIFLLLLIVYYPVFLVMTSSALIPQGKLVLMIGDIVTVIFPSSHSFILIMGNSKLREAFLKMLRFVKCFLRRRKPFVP
Put plainly: Agonist activity at human TAS2R9 expressed in HEK293T cells co-expressing Galpha15 assessed as increase in intracellular calcium level at 20 mM by Calcium-3 dye based fluorescence assay relative to control.

The target of assay [5] is Taste receptor type 2 member 13 (Homo sapiens, UniProt Q9NYV9). Put plainly: Agonist activity at human TAS2R13 expressed in HEK293T cells co-expressing Galpha15 assessed as increase in intracellular calcium level by Calcium-3 dye based fluorescence assay.
Taste receptor type 2 member 13, sequence (Q9NYV9 whole entry): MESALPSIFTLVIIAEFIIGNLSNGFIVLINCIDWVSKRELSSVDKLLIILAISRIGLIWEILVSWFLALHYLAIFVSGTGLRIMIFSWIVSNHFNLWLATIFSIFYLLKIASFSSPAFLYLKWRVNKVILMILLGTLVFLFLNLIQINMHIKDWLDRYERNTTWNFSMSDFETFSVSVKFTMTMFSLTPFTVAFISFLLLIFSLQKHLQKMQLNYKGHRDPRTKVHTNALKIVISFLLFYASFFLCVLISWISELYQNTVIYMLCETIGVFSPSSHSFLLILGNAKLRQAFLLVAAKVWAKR
Assay [6] concerns the target Taste receptor type 2 member 31 (Homo sapiens, UniProt P59538). Put plainly: Agonist activity at human TAS2R44 expressed in HEK293T cells co-expressing Galpha15 assessed as increase in intracellular calcium level by Calcium-3 dye based fluorescence assay.
Assay [7] deals with Taste receptor type 2 member 14 (Homo sapiens, UniProt Q9NYV8). Put plainly: Agonist activity at human TAS2R14 expressed in HEK293T cells co-expressing Galpha15 assessed as increase in intracellular calcium level by Calcium-3 dye based fluorescence assay.
Taste receptor type 2 member 14, sequence (Q9NYV8 whole entry): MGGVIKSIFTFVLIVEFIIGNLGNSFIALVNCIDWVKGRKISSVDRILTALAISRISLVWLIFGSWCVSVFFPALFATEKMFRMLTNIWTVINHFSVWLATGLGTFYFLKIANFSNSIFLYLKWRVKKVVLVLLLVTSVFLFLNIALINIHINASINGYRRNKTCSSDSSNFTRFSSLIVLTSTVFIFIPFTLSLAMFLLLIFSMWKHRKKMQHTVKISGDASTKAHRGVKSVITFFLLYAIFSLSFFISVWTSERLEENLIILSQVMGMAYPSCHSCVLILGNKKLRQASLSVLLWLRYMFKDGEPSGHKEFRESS
The target in assay [8] is Taste receptor type 2 member 60 (Homo sapiens, UniProt P59551). Put plainly: Agonist activity at human TAS2R60 expressed in HEK293T cells co-expressing Galpha15 assessed as increase in intracellular calcium level by Calcium-3 dye based fluorescence assay.
Taste receptor type 2 member 60, sequence (P59551 whole entry): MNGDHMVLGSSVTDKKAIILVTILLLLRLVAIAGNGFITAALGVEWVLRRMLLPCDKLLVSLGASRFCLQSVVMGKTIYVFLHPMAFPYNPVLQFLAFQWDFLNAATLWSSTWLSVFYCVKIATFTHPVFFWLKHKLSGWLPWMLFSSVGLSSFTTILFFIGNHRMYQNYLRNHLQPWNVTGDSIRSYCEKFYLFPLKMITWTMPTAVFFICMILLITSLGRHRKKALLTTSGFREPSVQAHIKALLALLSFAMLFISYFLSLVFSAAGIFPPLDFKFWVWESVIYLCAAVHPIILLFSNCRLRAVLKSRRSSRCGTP
Assay [9] deals with Taste receptor type 2 member 9 (Homo sapiens, UniProt Q9NYW1). Put plainly: Agonist activity at human TAS2R9 expressed in HEK293T cells co-expressing Galpha15 assessed as increase in intracellular calcium level by Calcium-3 dye based fluorescence assay.
For assay [10], the target named is Taste receptor type 2 member 4 (Homo sapiens, UniProt Q9NYW5). Put plainly: Agonist activity at human TAS2R4 expressed in HEK293T cells co-expressing Galpha15 assessed as increase in intracellular calcium level by Calcium-3 dye based fluorescence assay.
Taste receptor type 2 member 4, sequence (Q9NYW5 whole entry): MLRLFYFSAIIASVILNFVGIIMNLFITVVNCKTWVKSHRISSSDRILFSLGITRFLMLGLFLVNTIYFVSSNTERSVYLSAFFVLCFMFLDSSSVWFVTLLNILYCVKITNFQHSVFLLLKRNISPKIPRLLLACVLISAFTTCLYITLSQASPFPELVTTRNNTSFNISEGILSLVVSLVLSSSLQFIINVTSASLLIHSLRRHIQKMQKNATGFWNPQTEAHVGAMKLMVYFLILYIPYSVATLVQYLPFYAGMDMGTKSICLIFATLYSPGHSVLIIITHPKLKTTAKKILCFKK

Taste receptor type 2 member 31, sequence (P59538 whole entry): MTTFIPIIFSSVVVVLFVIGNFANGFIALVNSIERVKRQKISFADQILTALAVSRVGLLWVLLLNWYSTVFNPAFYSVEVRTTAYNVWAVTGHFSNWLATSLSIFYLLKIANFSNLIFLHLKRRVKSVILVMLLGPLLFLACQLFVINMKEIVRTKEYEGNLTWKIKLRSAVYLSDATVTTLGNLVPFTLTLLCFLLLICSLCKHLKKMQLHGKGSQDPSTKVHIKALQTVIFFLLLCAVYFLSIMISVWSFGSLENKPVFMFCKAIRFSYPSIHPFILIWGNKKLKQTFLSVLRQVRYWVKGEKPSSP

For the compound `CC1=CC(=O)NS(=O)(=O)O1`, the Activity in [1] is under 40%; in assay [2], under 40%; in assay [3], under 40%; in assay [4], over 40%.

`[Cl-].[K+]` [POTASSIUM CHLORIDE]: the EC50 in assay [5], in assay [6], in assay [7], in assay [8], in assay [9] and in [10] was 5 to 15 mM each time. In addition, the Activity is under 40% in assay [1], under 40% in assay [2], under 40% in assay [3] and over 40% in assay [4].

With `CC(O)C(=O)[O-].[K+]` (stereo not drawn), the Activity in [1] was under 40%; in [2], under 40%; in [3], under 40%; in assay [4] it was over 40%.

What is called EC50 is the concentration giving half of the maximal effect.
